# Measurements taken from publication PMC12030627, “Radioiodinated Bicyclic RGD Peptide Derivatives for Enhanced Tumor Accumulation” (Pharmaceuticals, 2025).
# Where two headings read alike, the source gives them in different places. Starred links: 1 amine or outer side, 2 acyl side, 3 side chain; linkers in the order of their positions; H or OH if unused. Positions of bridges follow the written chain, without caps; N, C: chain ends. Non-standard residues stand in square brackets, D forms with d. Residues, ends and D or L forms follow the SMILES beside them. *: point of attachment. Butanoyl(4-(4-I-phenyl)) = O=C(CCCc1ccc(I)cc1)*; TBMB = c1c(C[*:1])cc(C[*:3])cc1C[*:2]; Benzoyl(3-I) = O=C(c1cccc(I)c1)*; 4Abz = Nc1ccc(C(=O)O)cc1
# Assay: Biodistribution in U-87 MG tumor-bearing mice
# Type: in vivo, BALB/c nu-nu mice
# Settings: male, BALB/c nu-nu, mouse, iv, 37 kBq, total radioactivity; for tissue uptake at 5 min: 5 min after i.v. administration; for tissue uptake at 5 min / tissue uptake at 0.5 h / tissue uptake at 1 h / tissue uptake at 2 h / tissue uptake at 6 h / tissue uptake at 12 h / tissue uptake at 24 h: U-87 MG-bearing mice, mean ± SD, n = 3; for tissue uptake at 0.5 h: 30 min after i.v. administration; for tissue uptake at 1 h: 1 h after i.v. administration; for tissue uptake at 2 h: 2 h after i.v. administration; for tissue uptake at 6 h: 6 h after i.v. administration; for tissue uptake at 12 h: 12 h after i.v. administration; for tissue uptake at 24 h: 24 h after i.v. administration
# Procedure: Animal experiments were performed in compliance with institutional animal care regulations, with the study protocol approved by the Experimental Animal Committee of Osaka Medical and Pharmaceutical University (Approval Numbers: 21–76, 22–76, and 23–76). Four-week-old male BALB/c nu-nu mice (Japan SLC, Shizuoka, Japan) were housed under a 12 h light/12 h dark cycle with free access to food and water. Tumor-bearing mice were established by suspending U-87 MG cells (2 × 10^6 cells/mouse) in PBS(–) and subcutaneously injecting 100 μL of the suspension into the right hind leg. For co-implantation models, A549 cells (2 × 10^6 cells/mouse) were suspended in PBS(–) and inoculated (100 μL) into the left hind leg of the same mice already inoculated with U-87 MG cells. Mice with tumor size approximately 10 mm in diameter, 4–5 weeks after inoculation, were used for biodistribution studies. Animals in which either tumor was not viable were excluded from the experiment.
# U-87 MG-bearing mice (n = 42, 8–9 weeks old; 22–27 g) were randomly assigned into groups and administered [^125I]bcRGDpal or [^125I]bcRGDiba via intravenous injection (37 kBq in 100 μL of PBS containing 0.1% Tween 80 (PBS-T80)). At 5 min, 30 min, 1 h, 2 h, 6 h, 12 h, or 24 h post-injection, the mice were euthanized (n = 3 per time point). The heart, kidneys, liver, brain, pancreas, spleen, lung, small intestine, large intestine, muscle, skin, stomach, bone, and tumors were excised. Each organ’s weight and radioactivity were measured by a NaI well-type scintillation counter, and the % ID/g was calculated. To investigate the correlation between integrin expression and radioactivity accumulation, biodistribution at 2 h after administration of [^125I]bcRGDpal or [^125I]bcRGDiba was assessed in A549 and U-87 MG co-implantation mice (n = 5) using the same procedure. Additionally, co-implantation mice were injected with [^125I]bcRGDdimer (37 kBq/100 μL PBS-T80) and euthanized at 30 min, 2 h, and 4 h post-injection (n = 4 per time point), and % ID/g values were calculated as described above. The minimum sample size needed for the biodistribution study in U-87 MG-bearing mice was calculated using G Power software version 3.1.9.7. The calculation was based on a two-tailed test, with an effect size of 3.9, a significance level (α) of 0.05, and a statistical power (1 − β) of 0.8. […] The minimum required sample size for the biodistribution study in A549 and U-87 MG co-implantation mice was also calculated to be four animals per group (effect size = 2.5, α = 0.05, 1 − β = 0.8). To guarantee objective results, the experiment was carried out in a blinded manner. Specifically, drug administration and radioactivity measurements were conducted by different investigators to eliminate potential bias.
# [1] = U-87 MG tumor, read-out: Radioactivity in U-87 MG tumor
# [2] = blood, read-out: Radioactivity in blood
# [3] = bone, read-out: Radioactivity in bone
# [4] = brain, read-out: Radioactivity in brain
# [5] = heart, read-out: Radioactivity in heart
# [6] = kidneys, read-out: Radioactivity in kidneys
# [7] = large intestine, read-out: Radioactivity in large intestine
# [8] = liver, read-out: Radioactivity in liver
smiles,measurement,setting,value
N=C(N)NCCC[C@@H]1NC(=O)[C@H]2CSCc3cc(cc(c3)CSC[C@H](C(N)=O)NC(=O)[C@H](CC(=O)O)NC(=O)CNC1=O)CSC[C@H](NC(=O)CNC(=O)[C@H](CO)NC(=O)c1ccc(NC(=O)CNC(=O)[C@H](CO)NC(=O)[C@@H]3CCCN3C(=O)[C@@H]3CCCN3C(=O)[C@@H]3CCCN3C(=O)[C@H](CCCCNC(=O)c3cccc(I)c3)NC(=O)CCCc3ccc(I)cc3)cc1)C(=O)N[C@@H](Cc1c[nH]cn1)C(=O)N1CCC[C@H]1C(=O)N[C@@H](CCC(N)=O)C(=O)N2 [[^125I]bcRGDiba] ({Butanoyl(4-(4-I-phenyl))}-K(Benzoyl(3-I))PPPSG[4Abz]SGCHPQ[dC]RGD[dC]-NH2; linker 10-14-18 via TBMB),tissue uptake at 5 min,[1],2.2 ± 0.5 %ID/g
same,tissue uptake at 0.5 h,[1],3.4 ± 0.5 %ID/g
same,tissue uptake at 1 h,[1],3.6 ± 0.8 %ID/g
same,tissue uptake at 2 h,[1],3.6 ± 0.7 %ID/g
same,tissue uptake at 6 h,[1],2.9 ± 0.4 %ID/g
same,tissue uptake at 12 h,[1],1.4 ± 0.3 %ID/g
same,tissue uptake at 24 h,[1],0.5 ± 0.1 %ID/g
same,tissue to tissue ratio,"U-87 MG tumor/blood, all time points (5 min to 24 h)",< 1
same,tissue uptake at 5 min,[2],23.3 ± 2.9 %ID/g
same,tissue uptake at 0.5 h,[2],18.5 ± 1 %ID/g
same,tissue uptake at 1 h,[2],15.4 ± 1.2 %ID/g
same,tissue uptake at 2 h,[2],14 ± 1.5 %ID/g
same,tissue uptake at 6 h,[2],8.5 ± 1 %ID/g
same,tissue uptake at 12 h,[2],3.9 ± 0.7 %ID/g
same,tissue uptake at 24 h,[2],1.4 ± 0.1 %ID/g
same,tissue uptake at 5 min,[3],1.7 ± 0.3 %ID/g
same,tissue uptake at 0.5 h,[3],1.9 ± 0.6 %ID/g
same,tissue uptake at 1 h,[3],1.6 ± 0.4 %ID/g
same,tissue uptake at 2 h,[3],1.5 ± 0.3 %ID/g
same,tissue uptake at 6 h,[3],1.3 ± 0.1 %ID/g
same,tissue uptake at 12 h,[3],0.6 ± 0.2 %ID/g
same,tissue uptake at 24 h,[3],0.3 ± 0.1 %ID/g
same,tissue uptake at 5 min,[4],0.6 ± 0.2 %ID/g
same,tissue uptake at 0.5 h,[4],0.4 ± 0.1 %ID/g
same,tissue uptake at 1 h,[4],0.4 %ID/g
same,tissue uptake at 2 h,[4],0.3 %ID/g
same,tissue uptake at 6 h,[4],0.2 %ID/g
same,tissue uptake at 12 h,[4],0.1 %ID/g
same,tissue uptake at 5 min,[5],7.4 ± 1.4 %ID/g
same,tissue uptake at 0.5 h,[5],5.3 ± 0.5 %ID/g
same,tissue uptake at 1 h,[5],4.5 ± 0.8 %ID/g
same,tissue uptake at 2 h,[5],4.2 ± 0.1 %ID/g
same,tissue uptake at 6 h,[5],2.7 ± 0.2 %ID/g
same,tissue uptake at 12 h,[5],1.3 ± 0.1 %ID/g
same,tissue uptake at 24 h,[5],0.5 %ID/g
same,tissue uptake at 5 min,[6],7.8 ± 0.5 %ID/g
same,tissue uptake at 0.5 h,[6],7.1 ± 1.4 %ID/g
same,tissue uptake at 1 h,[6],7.3 ± 0.4 %ID/g
same,tissue uptake at 2 h,[6],5.5 ± 0.3 %ID/g
same,tissue uptake at 6 h,[6],3.9 ± 0.4 %ID/g
same,tissue uptake at 12 h,[6],1.8 ± 0.1 %ID/g
same,tissue uptake at 24 h,[6],0.8 ± 0.1 %ID/g
same,tissue uptake at 5 min,[7],1.5 ± 0.7 %ID/g
same,tissue uptake at 0.5 h,[7],1 ± 0.1 %ID/g
same,tissue uptake at 1 h,[7],1 ± 0.1 %ID/g
same,tissue uptake at 2 h,[7],7.1 ± 2 %ID/g
same,tissue uptake at 6 h,[7],11.3 ± 2 %ID/g
same,tissue uptake at 12 h,[7],3.4 ± 1 %ID/g
same,tissue uptake at 24 h,[7],2.2 ± 0.2 %ID/g
same,tissue uptake at 5 min,[8],7.6 ± 0.5 %ID/g
same,tissue uptake at 0.5 h,[8],6.9 ± 0.2 %ID/g
